4 cell lines from the supplement of paper PMC10307832 can be followed below.

What all share (assay): relative viability (nuclei count vs DMSO), 5 days (fraction); higher = more cells survive
Compound in experiment [1]: COc1cc2nc(N3CCCN(C)CC3)nc(NC3CCN(Cc4ccccc4)CC3)c2cc1OC + O=C(c1cc(Cc2n[nH]c(=O)c3ccccc23)ccc1F)N1CCN(C(=O)C2CC2)CC1 [Olaparib] (partner 8 µM)
The procedure, abridged: (§1)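 Each reported value is a median over duplicate plates. It expresses relative viability: treated-well nuclei count divided by vehicle-well nuclei count. Lung cancer cell lines in 1536-well plates were dosed by pin tool a day after seeding, alone with one drug or with a fixed anchor-drug dose plus five library-drug doses (not always all listed) in √10 steps, and nuclei were counted after 5 days.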

Compound in the experiment “AZD6482 + Trametinib”: Cc1cc([C@@H](C)Nc2ccccc2C(=O)O)c2nc(N3CCOCC3)cc(=O)n2c1 [AZD6482] + CC(=O)Nc1cccc(-n2c(=O)n(C3CC3)c(=O)c3c(Nc4ccc(I)cc4F)n(C)c(=O)c(C)c32)c1 [Trametinib] (partner 0.02 µM)
The procedure, abridged:
as §1

Compound in the experiment “AZD6482 + Crizotinib”: Cc1cc([C@@H](C)Nc2ccccc2C(=O)O)c2nc(N3CCOCC3)cc(=O)n2c1 [AZD6482] + C[C@@H](Oc1cc(-c2cnn(C3CCNCC3)c2)cnc1N)c1c(Cl)ccc(F)c1Cl [Crizotinib] (partner 1 µM)
In outline:
as §1

Compound in the experiment “AZD6482 + OSI-027”: Cc1cc([C@@H](C)Nc2ccccc2C(=O)O)c2nc(N3CCOCC3)cc(=O)n2c1 [AZD6482] + COc1cccc2cc(-c3nc([C@H]4CC[C@H](C(=O)O)CC4)n4ncnc(N)c34)[nH]c12 [OSI-027] (partner 0.5 µM)
The procedure, abridged: as §1

With NCI-H2087, the relative viability in experiment [1] (first compound 0.2 µM) stood at 0.633; in experiment [1] (first compound 0.6325 µM) it was 0.615; in experiment [1] (first compound 2 µM), 0.706; in experiment [1] (first compound 6.325 µM), 0.594; with AZD6482 + Trametinib (first compound 0.08 µM) it was 0.176; with AZD6482 + Trametinib (first compound 0.253 µM), 0.162. The relative viability was 0.133 in the experiment with AZD6482 + Trametinib (first compound 0.8 µM); 0.132 in the experiment with AZD6482 + Trametinib (first compound 2.53 µM); 0.183 with AZD6482 + Trametinib (first compound 8 µM); 0.805 with AZD6482 + Crizotinib (first compound 0.08 µM); 0.93 with AZD6482 + Crizotinib (first compound 0.253 µM); 0.997 with AZD6482 + Crizotinib (first compound 0.8 µM). Besides, the relative viability came to 0.827 with AZD6482 + Crizotinib (first compound 2.53 µM); 0.984 with AZD6482 + Crizotinib (first compound 8 µM); 0.495 with AZD6482 + OSI-027 (first compound 0.08 µM); 0.43 with AZD6482 + OSI-027 (first compound 0.253 µM); 0.46 with AZD6482 + OSI-027 (first compound 0.8 µM); 0.332 in the experiment with AZD6482 + OSI-027 (first compound 8 µM).
BEN: the relative viability stood at 1.01 in experiment [1] (first compound 0.2 µM); 1.07 in experiment [1] (first compound 0.6325 µM); 1.12 in experiment [1] (first compound 2 µM); 1.07 in experiment [1] (first compound 6.325 µM); 0.898 with AZD6482 + Trametinib (first compound 0.08 µM); 0.947 in the experiment with AZD6482 + Trametinib (first compound 0.253 µM). Besides, the relative viability with AZD6482 + Trametinib (first compound 0.8 µM) turned out to be 1.02; with AZD6482 + Trametinib (first compound 2.53 µM) it was 0.866; in the experiment with AZD6482 + Trametinib (first compound 8 µM) it was 0.817; with AZD6482 + Crizotinib (first compound 0.08 µM), 0.876; with AZD6482 + Crizotinib (first compound 0.253 µM), 0.769; with AZD6482 + Crizotinib (first compound 0.8 µM), 0.913. The relative viability came out at 0.655 with AZD6482 + Crizotinib (first compound 2.53 µM); 0.827 with AZD6482 + Crizotinib (first compound 8 µM); 0.314 in the experiment with AZD6482 + OSI-027 (first compound 0.08 µM); 0.302 in the experiment with AZD6482 + OSI-027 (first compound 0.253 µM); 0.273 in the experiment with AZD6482 + OSI-027 (first compound 0.8 µM); 0.276 with AZD6482 + OSI-027 (first compound 2.53 µM). For the same cell line, in the experiment with AZD6482 + OSI-027 (first compound 8 µM), the relative viability stood at 0.299.
As for LCLC-103H, the relative viability is 0.751 in experiment [1] (first compound 0.2 µM); 0.732 in experiment [1] (first compound 0.6325 µM); 0.802 in experiment [1] (first compound 2 µM); 0.748 in experiment [1] (first compound 6.325 µM); 0.661 in the experiment with AZD6482 + Trametinib (first compound 0.08 µM); 0.607 with AZD6482 + Trametinib (first compound 0.253 µM). For the same cell line, the relative viability in the experiment with AZD6482 + Trametinib (first compound 0.8 µM) stood at 0.649; with AZD6482 + Trametinib (first compound 2.53 µM) it was 0.547; with AZD6482 + Trametinib (first compound 8 µM) it was 0.496; with AZD6482 + Crizotinib (first compound 0.08 µM), 0.909; with AZD6482 + Crizotinib (first compound 0.253 µM), 0.994; in the experiment with AZD6482 + Crizotinib (first compound 0.8 µM) it was 0.911. The relative viability was found to be 0.847 in the experiment with AZD6482 + Crizotinib (first compound 2.53 µM); 0.699 with AZD6482 + Crizotinib (first compound 8 µM); 0.414 with AZD6482 + OSI-027 (first compound 0.08 µM); 0.452 in the experiment with AZD6482 + OSI-027 (first compound 0.253 µM); 0.492 in the experiment with AZD6482 + OSI-027 (first compound 0.8 µM); 0.273 with AZD6482 + OSI-027 (first compound 2.53 µM). Besides, the relative viability in the experiment with AZD6482 + OSI-027 (first compound 8 µM) turned out to be 0.31.
As to EKVX, the relative viability in experiment [1] (first compound 0.2 µM) was 0.838; in experiment [1] (first compound 0.6325 µM) it was 0.873; in experiment [1] (first compound 2 µM), 0.808; in experiment [1] (first compound 6.325 µM), 0.776; with AZD6482 + Trametinib (first compound 0.08 µM) it was 0.293; in the experiment with AZD6482 + Trametinib (first compound 0.253 µM), 0.291. For the same cell line, the relative viability with AZD6482 + Trametinib (first compound 0.8 µM) amounted to 0.286; with AZD6482 + Trametinib (first compound 2.53 µM) it was 0.242; with AZD6482 + Trametinib (first compound 8 µM), 0.203; in the experiment with AZD6482 + Crizotinib (first compound 0.08 µM), 0.855; with AZD6482 + Crizotinib (first compound 0.253 µM), 0.939; with AZD6482 + Crizotinib (first compound 0.8 µM) it was 0.788. In addition, the relative viability with AZD6482 + Crizotinib (first compound 2.53 µM) was 0.537; in the experiment with AZD6482 + Crizotinib (first compound 8 µM) it was 0.584; in the experiment with AZD6482 + OSI-027 (first compound 0.08 µM), 0.624; with AZD6482 + OSI-027 (first compound 0.253 µM), 0.62; in the experiment with AZD6482 + OSI-027 (first compound 0.8 µM), 0.684; in the experiment with AZD6482 + OSI-027 (first compound 2.53 µM) it was 0.387. For the same cell line, the relative viability in the experiment with AZD6482 + OSI-027 (first compound 8 µM) was 0.434.
